According to patent US12673930B2, “Thiophene HSD17B13 inhibitors and uses thereof” (INIPHARM, INC., priority 2020, dated 2026):
pIC50: −log10 of the molar value.

Molecular target: T1, HSD17B13 enzyme (Homo sapiens, UniProt Q7Z5P4)
T1 construct: His; made in house; host or cells: E. coli
T1 sequence (Q7Z5P4 20-300): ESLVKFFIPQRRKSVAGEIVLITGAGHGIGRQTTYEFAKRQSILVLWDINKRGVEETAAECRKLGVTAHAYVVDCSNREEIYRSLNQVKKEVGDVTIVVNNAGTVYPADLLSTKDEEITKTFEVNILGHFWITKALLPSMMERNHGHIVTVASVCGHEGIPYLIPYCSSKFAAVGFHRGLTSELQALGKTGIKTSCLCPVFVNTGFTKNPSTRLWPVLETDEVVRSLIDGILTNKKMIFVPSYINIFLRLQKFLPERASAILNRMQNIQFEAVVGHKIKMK
Test: LC/MS estrone detection assay (conversion of estradiol to estrone by HSD17B13)
Type: biochemical
Conditions: substrate 4 μM estradiol, 6 mM NAD+, 30 nM HSD17B13 enzyme, 2 hours at 26.5° C
Method: The liquid chromatography/mass spectrometry (LC/MS) estrone detection assay monitors the conversion of estradiol to estrone by HSD17B13. This assay was performed in a 96 wp format (Eppendorf deep well Plate 96/500) in an 80 μl reaction volume containing: 4 μM estradiol (E2; Cayman; Ser. No. 10/006,315); 6 mM NAD^+ (Sigma; #N0623), and 30 nM HSD17B13 enzyme (in-house; E. coli expressed His-tagged, purified, soluble protein), in a buffer containing 1M potassium phosphate buffer pH 7.4 and 0.5% vehicle (DMSO). Reactions were incubated for 2 hours at 26.5° C., and estradiol (E2) conversion to estrone (E1) was quantitated by LC-MS/MS based analyte detection for E1 using LCMS grade reagents. Reactions were terminated by the addition of two volumes of acetonitrile (MeCN; LCMS grade; CAS #75/05/8) containing deuterated (D4)-E1 as internal standard (Clear Synth; #CS-T-54273; 500 ng/mL final concentration). Samples were applied to pre-prepared Bond Elut-C18 extraction cartridges (3 mL; Agilent; Ser. No. 12/102,028), and washed and eluted in MeCN. Eluates were dried under nitrogen and re-suspended in 60% methanol (LCMS grade methanol; CAS #67/56/1) before submission for analysis. Standard curves for E1 were included for quantification. Analysis of samples was undertaken on a XBridge BEH C18 column (Waters; #186003033) using 0.1% Diethyl Amine in MeCN (mobile phase A; DEA CAS #109-89-7) and 0.1% Diethyl Amine in milli-Q water (mobile phase B) in a 3 min gradient up to 25% B. Analytes were detected in negative mode using MRM analysis, with E2 having a RT of 1.85 min and E1 having a RT of 2 min. Activity of the enzyme in the absence of NAD^+, was subtracted from samples to yield values for specific enzyme activity. Enzyme activity in the presence of test samples was expressed as a percentage of the uninhibited enzyme activity, and plotted versus inhibitor concentration. Non-linear regression was performed using the Morrison equation (see below) for tight binding inhibitors on GraphPad Prism software (GraphPad Software, La Jolla, Calif.). All assessments were undertaken in duplicate evaluations which were pooled during the extraction process and subsequently injected as duplicates for LC-MS/MS analysis. Y=Vo*(1−((((Et+X+Q)−(((Et+X+Q)^2)−4*Et*X)^0.5))/(2*Et))) Morrison equation:
Y=Activity in the presence of inhibitor; Vo=Activity in absence of inhibitor; Et=Total enzyme concentration; X=inhibitor concentration; and Q=(Ki*(1+(S/Km))), where Ki is the inhibition constant, Km is the Michaelis constant, and S is the substrate concentration.

Row | Structure (SMILES) | pIC50
1 | CC(C)CNC(=O)c1sccc1NC(=O)c1ccc(O)c(Cl)c1 [Example 2, 3-(3-chloro-4-hydroxybenzamido)-N-isobutylthiophene-2-carboxamide] | ≥ 7.00
2 | CC(C)(C)CCNC(=O)c1sccc1NC(=O)c1ccc(O)c(Cl)c1 [Example 3, 3-(3-chloro-4-hydroxybenzamido)-N-(3,3-dimethylbutyl)thiophene-2-carboxamide] | ≥ 7.00
3 | O=C(Nc1cc(Cl)sc1C(=O)NC1(c2ccc(F)cc2)CC1)c1cc(F)c(O)c(F)c1 [Example 35, 5-chloro-3-(3,5-difluoro-4-hydroxybenzamido)-N-(1-(4-fluorophenyl)cyclopropyl)thiophene-2-carboxamide] | ≥ 7.00
4 | O=C(Nc1cc(Cl)sc1C(=O)NCCc1ccc(Cl)cc1Cl)c1ccc(O)c(F)c1 [Example 36, 5-chloro-N-(2,4-dichlorophenethy1)-3-(3-fluoro-4-hydroxybenzamido)thiophene-2-carboxamide] | ≥ 7.00
5 | CN1CCN(CCNC(=O)c2sc(Cl)cc2NC(=O)c2ccc(O)c(F)c2)CC1 [Example 37, 5-chloro-3-(3-fluoro-4-hydroxybenzamido)-N-(2-(4-methylpiperazin-1-yl)ethyl)thiophene-2-carboxamide] | 6.00 to 7.00
6 | O=C(Nc1cc(Cl)sc1C(=O)NCCN1CCOCC1)c1ccc(O)c(F)c1 [Example 38, 5-chloro-3-(3-fluoro-4-hydroxybenzamido)-N-(2-morpholinoethyl)thiophene-2-carboxamide] | ≥ 7.00
7 | O=C(Nc1sc(Cl)cc1C(=O)NCCc1ccccc1OC(F)(F)F)c1ccc(O)c(Cl)c1 [Example 40, 5-chloro-2-(3-chloro-4-hydroxybenzamido)-N-(2-(trifluoromethoxy)phenethyl)thiophene-3-carboxamide] | ≥ 7.00
8 | O=C(Nc1sc(Cl)cc1C(=O)NCCN1CCOCC1)c1ccc(O)c(F)c1 [Example 41, 5-chloro-2-(3-fluoro-4-hydroxybenzamido)-N-(2-morpholinoethyl)thiophene-3-carboxamide.] | 6.00 to 7.00
9 | CN1CCN(CCNC(=O)c2cc(Cl)sc2NC(=O)c2ccc(O)c(F)c2)CC1 [Example 42, 5-chloro-2-(3-fluoro-4-hydroxybenzamido)-N-(2-(4-methylpiperazin-1-yl)ethyl)thiophene-3-carboxamide] | 5.00 to 6.00
10 | O=C(Nc1cc(Cl)sc1C(=O)NCCc1ccccc1C(F)(F)F)c1cc(F)c(O)c(F)c1 [Example 44, 5-chloro-3-(3,5-difluoro-4-hydroxybenzamido)-N-(2-(trifluoromethyl)phenethyl) thiophene-2-carboxamide] | ≥ 7.00
11 | CC(C)(C)CCNC(=O)c1sccc1NC(=O)c1cc(F)c(O)c(Cl)c1 [Example 47, 3-(3-chloro-5-fluoro-4-hydroxybenzamido)-N-(3,3-dimethylbutyl)thiophene-2-carboxamide] | ≥ 7.00

Other lines, results leading:

Row | pIC50 | Structure (SMILES)
12 | ≥ 7.00 | COc1ccccc1CCNC(=O)c1sccc1NC(=O)c1ccc(O)c(Cl)c1 [Example 1, 3-(3-chloro-4-hydroxybenzamido)-N-(2-methoxyphenethyl)thiophene-2-carboxamide]
13 | 6.00 to 7.00 | COc1ccccc1CCNC(=O)c1c(NC(=O)c2ccc(O)c(Cl)c2)sc2c1CCN(C)C2 [Example 15, 2-(3-chloro-4-hydroxybenzamido)-N-(2-methoxyphenethyl)-6-methyl-4,5,6,7-tetrahydrothieno[2,3-c]pyridine-3-carboxamide]
14 | 6.00 to 7.00 | O=C(Nc1cc(Cl)sc1C(=O)NCCc1ccc(F)cc1Cl)c1ccc(O)c(F)c1 [Example 34, 5-chloro-N-(2-chloro-4-fluorophenethyl)-3-(3-fluoro-4-hydroxybenzamido) thiophene-2-carboxamide]
15 | ≥ 7.00 | O=C(Nc1cc(Cl)sc1C(=O)NCCc1ccc(F)cc1F)c1ccc(O)c(F)c1 [Example 39, 5-chloro-N-(2,4-difluorophenethyl)-3-(3-fluoro-4-hydroxybenzamido)thiophene-2-carboxamide]
16 | ≥ 7.00 | O=C(Nc1sc(Cl)cc1C(=O)NCCc1ccccc1F)c1ccc(O)c(F)c1 [Example 43, 5-chloro-2-(3-fluoro-4-hydroxybenzamido)-N-(2-fluorophenethyl)thiophene-3-carboxamide]
17 | ≥ 7.00 | O=C(Nc1cc(Cl)sc1C(=O)NCCc1ccccc1C(F)(F)F)c1ccc(O)c(Cl)c1 [Example 45, 5-chloro-3-(3-chloro-4-hydroxybenzamido)-N-(2-(trifluoromethyl)phenethyl) thiophene-2-carboxamide]
18 | ≥ 7.00 | O=C(Nc1sc(Cl)cc1C(=O)NCCc1ccccc1OC(F)(F)F)c1ccc(O)c(F)c1 [Example 46, 5-chloro-2-(3-fluoro-4-hydroxybenzamido)-N-(2-(trifluoromethoxy)phenethyl) thiophene-3-carboxamide]
19 | 6.00 to 7.00 | O=C(Nc1ccsc1C(=O)N[C@H](CO)c1ccccc1)c1ccc(O)c(Cl)c1 [Example 48, (S)-3-(3-chloro-4-hydroxybenzamido)-N-(2-hydroxy-1-phenylethyl) thiophene-2-carboxamide]
20 | ≥ 7.00 | O=C(Nc1ccsc1C(=O)N[C@@H](CO)c1ccccc1)c1ccc(O)c(Cl)c1 [Example 49, (R)-3-(3-chloro-4-hydroxybenzamido)-N-(2-hydroxy-1-phenylethyl)thiophene-2-carboxamide]

Molecular target: T1, HSD17B13 enzyme
Test: NADH detection assay (fluorescence based Leukotriene B3 (LTB3) assay) for HSD17B13 activity
Type: biochemical
Conditions: substrate 25 μM LTB3, 3 mM NAD+, 125 nM HSD17B13 enzyme, 1 hour at 26.5° C
Method: The fluorescence based Leukotriene B3 (LTB3) assay monitors the fluorescence of NADH, which is generated from NAD+ during the dehydrogenation of the substrate LTB3. The reactions were performed in a 384-well plates (Greiner; #655076) in a 20 μl reaction volume containing the following reagents (final concentrations): 25 μM LTB3 (Cayman; #20109); 3 mM NAD^+ (Sigma; #N0623); 125 nM HSD17B13 enzyme (in-house; E. coli expressed His-tagged, purified, soluble protein); 1 M potassium phosphate buffer, pH 7.4; and 1% DMSO. Reactions were initiated by co-addition of NAD+ and enzyme, and monitored for 1 hour at 26.5° C. Generation of NADH was measured as the fluorescence signal (Excitation at 340 nm and Emission at 445 nm) at 1 hour minus the baseline fluorescence at t=0. Fluorescence signals in the absence of LTB3 (negative control values), were subtracted from all values so that the results reflected substrate-dependent production of NADH. NADH standards were included to allow the conversion of relative fluorescence units into rates of enzyme activity. Enzyme activity in the presence of test compounds was expressed as a percentage of the uninhibited enzyme activity, and plotted versus inhibitor concentration. Non-linear regression was performed using a four-parameter logistic model and Microsoft Excel Solver® software. Ten concentrations of inhibitor were tested in duplicate (in the range of 30 μM-2.5 nM). Two independent concentration response assays were performed and the geometric mean is reported, =/−the SEM.

Row | Structure (SMILES) | pIC50
21 | CC(C)CNC(=O)c1sccc1NC(=O)c1ccc(O)c(Cl)c1 [Example 2, 3-(3-chloro-4-hydroxybenzamido)-N-isobutylthiophene-2-carboxamide] | ≥ 6.00
22 | CC(C)(C)CCNC(=O)c1sccc1NC(=O)c1ccc(O)c(Cl)c1 [Example 3, 3-(3-chloro-4-hydroxybenzamido)-N-(3,3-dimethylbutyl)thiophene-2-carboxamide] | ≥ 6.00

Further lines, results first:

Row | pIC50 | Structure (SMILES)
23 | ≥ 6.00 | COc1ccccc1CCNC(=O)c1sccc1NC(=O)c1ccc(O)c(Cl)c1 [Example 1, 3-(3-chloro-4-hydroxybenzamido)-N-(2-methoxyphenethyl)thiophene-2-carboxamide]
24 | < 5.00 | COc1ccccc1CCNC(=O)c1sccc1NC(=O)c1ccc(OCC(=O)O)c(Cl)c1 [Example 11, 2-(2-chloro-4-((2-((2-methoxyphenethyl)carbamoyl)thiophen-3-yl)carbamoyl)phenoxy)acetic acid]
25 | < 5.00 | COc1ccccc1CCNC(=O)c1sccc1NC(=O)c1cnc(O)c(Cl)c1 [Example 21, 5-chloro-6-hydroxy-N-(2-((2-methoxyphenethyl)carbamoyl)thiophen-3-yl)nicotinamide]
26 | < 5.00 | COc1ccccc1CCNC(=O)c1sccc1NC(=O)c1ccc(CCC(=O)O)c(F)c1 [Example 22, 3-(2-fluoro-4-((2-((2-methoxyphenethyl)carbamoyl)thiophen-3-yl)carbamoyl)phenyl) propanoic acid]
27 | < 5.00 | COc1ccccc1CCNC(=O)c1sccc1NC(=O)c1cc(Cl)c(O)c(C(C)C)c1 [Example 23, 3-(3-chloro-4-hydroxy-5-isopropylbenzamido)-N-(2-methoxyphenethyl)thiophene-2-carboxamide]
28 | ≥ 6.00 | COc1ccccc1CCNC(=O)c1sccc1NC(=O)c1cc(Cl)c(O)c(Cl)c1 [Example 32, 3-(3,5-dichloro-4-hydroxybenzamido)-N-(2-methoxyphenethyl)thiophene-2-carboxamide]
